Experimental data from patent US6864363B2 (priority 2000, dated 2005).
Square brackets hold non-standard residues; d marks the D form. Peptide text beside a SMILES is read from it. * marks the point of attachment. Sta = CC(C)C[C@H](N)[C@@H](O)CC(=O)O; Isovaleryl = CC(C)CC(=O)*

B1: DPP-7: P. gingivalis dipeptidylpeptidase-7, a 76 kDa serine protease purified from the membrane fraction (protein, listed as Porphyromonas gingivalis)
chain: MQMKLKSILLGAALLLGASGVAKADKGMWLLNELNQENLDRMRELGFTLPLDSLYSFDKPSIANAVVIFGGGCTGITVSDQGLIFTNHHCGYGAIQSQSTVDHDYLRDGFVSRTMGEELPIPGLSVKYLRKIVKVTDKVEGQLKGITDEMERLRKAQEVCQELAKKENADENQLCIVEPFYSNNEYFLIVYDVFKDVRMVFAPPSSVGKFGGDTDNWMWPRHTGDFSVFRVYAGADNRPAEYSKDNKPYKPVYFAAVSMQGYKADDYAMTIGFPGSTDRYLTSWGVEDRIENENNPRIEVRGIKQGIWKEAMSADQATRIKYASKYAQSANYWKNSIGMNRGLARLDVIGRKRAEERAFADWIRKNGKSAVYGDVLSSLEKAYKEGAKANREMTYLSETLFGGTEVVRFAQFANALATNPDAHAGILKSLDDKYKDYLPSLDRKVLPAMLDIVRRRIPADKLPDIFKNVIDKKFKGDTKKYADFVFDKSVVPYSDKFHAMLKSMDKEKFAKAIEKDPAVELSKSVIAAARAIQADAMANAYAIEKGKRLFFAGLREMYPGRALPSDANFTMRMSYGSIKGYEPQDGAWYNYHTTGKGVLEKQDPKSDEFAVQENILDLFRTKNYGRYAENGQLHIAFLSNNDITGGNSGSPVFDKNGRLIGLAFDGNWEAMSGDIEFEPDLQRTISVDIRYVLFMIDKWGQCPRLIQELKLI
B2: α1-antichymotrypsin: human plasma inhibitor (protein)
chain: HPNSPLDEENLTQENQDRGTHVDLGLASANVDFAFSLYKQLVLKAPDKNVIFSPLSISTALAFLSLGAHNTTLTEILKGLKFNLTETSEAEIHQSFQHLLRTLNQSSDELQLSMGNAMFVKEQLSLLDRFTEDAKRLYGSEAFATDFQDSAAAKKLINDYVKNGTRGKITDLIKDLDSQTMMVLVNYIFFKAKWEMPFDPQDTHQSRFYLSKKKWVMVPMMSLHHLTIPYFRDEELSCTVVELKYTGNASALFILPDQDKMEEVEAMLLPETLKRWRDSLEFREIGELYLPKFSISRDYNLNDILLQLGIEEAFTSKADLSGITGARNLAVSQVVHKAVLDVFEEGTEASAATAVKITLLSALVETRTIVRFNRPFLMIIVPTDTQNIFFMSKVTNPKQA

Columns and labels:
Format in all cases: biochemical, Porphyromonas gingivalis
P. gingivalis DPP-7 [1] = test system: P. gingivalis DPP-7
P. gingivalis DPP-7 [2] = assay: Endopeptidase activity of DPP-7 on protein substrates and plasma inhibitors
[3] = pH optimum and stability of purified DPP-7 (activity against H-Ala-Phe-pNA)
Experimental: Kinetic Analysis—Routinely, the dipeptidylpeptidase amidolytic activity was measured with H-Ala-Phe-pNA (1 mM) in 0.2 M HEPES, pH 7.8 at 37° C. The reaction was followed for specific time intervals in a thermostated ELISA reader (SpectraMax, Applied Biosystem) and the release of p-nitroaniline was monitored at 405 nm. Other p-nitroanilide substrates were used in the same manner. For inhibition studies, the enzyme was first preincubated with an inhibitor for 15 minutes at 37° C., substrate added, and residual activity recorded. The initial steady-state velocity (v0) was determined by continuous assay for the range of substrate concentrations (100 nM to 1 mM). Km and Vmax were determined by hyperbolic regression of the kinetic data using the software package Hyper Version 1.02 obtained from Dr. J. S. Easterby (University of Liverpool, UK).
pH Optimum and Stability—Purified DPP-7 was active against H-Ala-Phe-pNA over a broad pH range, from neutral to basic pH (6.5-9.0) (FIG. 3). This activity also changed with the ionic strength of the buffer, reaching 200% at 0.5 M NaCl concentration in 100 mM HEPES, pH 8.0. DPP-7 was stable in 0.2 M HEPES, pH 8.0, for one week at 4° C. […] After 3 hours incubation at either room temperature or 37° C., activity was reduced to 62% and 20%, respectively. The optimum temperature for the hydrolysis of H-Ala-Phe-pNA was determined to be 43° C.

Molecule | % of residual activity (P. gingivalis DPP-7 [1]) [%] | inactivation of / influence on DPP-7 activity (in words) (P. gingivalis DPP-7 [1]) | also measured
O=c1oc(Cl)c(Cl)c2ccccc12 [3,4-dichloroisocoumarin] | 0 | inactivated | 
c1cnc2c(c1)ccc1cccnc12 [1,10-orthophenanthroline] | 98 | did not influence its activity | 
Aprotinin | 128 |  | 
NC(N)=NCCC[C@H](N)C(=O)N[C@@H](Cc1ccccc1)C(=O)O [Arg-Phe] | 69 |  | 
O=C(O)CN(CCN(CC(=O)O)CC(=O)O)CC(=O)O [EDTA] | 90 | did not influence its activity | 
CC(=O)N[C@@H](CC(C)C)C(=O)N[C@@H](CC(C)C)C(=O)N[C@H](C=O)CCCNC(=N)N [Leupeptin] | 107 |  | 
Cl.NCCc1ccc(S(=O)(=O)F)cc1 [PEFABLOCK, 4-(2-aminoethyl)-benzenesulfonyl fluoride hydrochloride] | 1 | inactivated | 
N[C@@H](CS)C(=O)O [Cysteine] | 90 |  | 
insulin β chain |  |  | endopeptidase activity of DPP-7 on protein substrate (P. gingivalis DPP-7 [2]): did not show any endopeptidase activity
CC(C)CC(=O)N[C@H](C(=O)N[C@H](C(=O)N[C@@H](CC(C)C)[C@@H](O)CC(=O)N[C@@H](C)C(=O)N[C@@H](CC(C)C)[C@@H](O)CC(=O)O)C(C)C)C(C)C [Pepstatin] (Isovaleryl-VV[Sta]A[Sta]-OH) | 127 |  | 
gelatin |  |  | endopeptidase activity of DPP-7 on protein substrate (P. gingivalis DPP-7 [2]): did not show any endopeptidase activity
O=C(O)CI [Iodoacetic acid] | 102 | not | 
α1-proteinase inhibitor: human plasma inhibitor |  | did not effect enzyme activity | 
NCCCC[C@H](N)C(=O)NCC(=O)O [Lys-Gly] (H-Lys-Gly-OH) | 96 |  | 
B1 |  |  | optimum temperature for the hydrolysis of H-Ala-Phe-pNA [3]: 43 °C; stability ([3]; 0.2 M HEPES, pH 8.0, one week at 4° C.): stable; activity with ionic strength of the buffer ([3]; 0.5 M NaCl in 100 mM HEPES, pH 8.0): 200%; activity remaining after incubation ([3]; 3 hours at 37° C.): 20%; activity remaining after incubation ([3]; 3 hours at room temperature): 62%; stability, loss of activity ([3]; kept frozen at −80° C. for one month): no appreciable loss of activity
B2 |  | did not effect enzyme activity | 
